The values that follow come from patent publication US20090105324A1, “IMIDAZOLE DERIVATIVES FOR USE AS EDG-1 ANTAGONISTS” (AstraZeneca AB, priority 2006, published 2009).

pEC50: −log10 of the molar value.

The assay has as its target T1, EDG-1/S1P1 receptor (Homo sapiens, UniProt P21453).
T1 construct: expressed in transfected cells; host or cells: U2OS (human osteogenic sarcoma), EDG-1 Transfluor U2OS WT Clone #37
Nature of the assay: In Vitro Cell Based Receptor Activation Assay-Transfluor Assay. The conditions noted are these: EDG-1 Transfluor U2OS WT Clone #37 cells; beta-arrestin GFP relocalization in presence of S1P. An excerpt:
This cell-based assay was designed to assess the ability of small molecule antagonists to inhibit activation of the GPCR S1P1 in the presence of its cognate ligand S1P. The assay used technology initially developed by Norak Biosciences (Xsira Pharmaceutical) and presently owned by Molecular Devices. A human osteogenic sarcoma (U2OS) cell line overexpressing the EDG-1/S1P1) receptor as well as a beta-arrestin/green fluorescent protein (GFP) construct hereafter termed EDG-1 Transfluor U2OS WT Clone #37 was employed.
Using a high content screening approach (Cellomics Arrayscan), receptor activity was measured by assessment of the relocalization of beta-arrestin GFP in response to stimulation of EDG-1 by S1P. Specifically, EDG-1 Transfluor U2OS WT Clone #37 cells were plated at a density of 6250 cells in 40 uL medium per well in 384 well plastic bottomed inicrotiter plates (BD Falcon) and incubated overnight at 37° C./5% CO2. Prior to screening, compounds were dissolved in 100% dimethyl sulfoxide (DMSO) to a final stock concentration of 10 mM. Compounds were then serially diluted at 30× final concentration in EDG-1 Transfluor cell growth medium containing 30% DMSO using the Tecan Genesis instrument. […] Plates were then sealed and analysed on the Cellomics Arrayscan using the GPCR signalling algorithm. EC50 values were then calculated using IDBS ActivityBase software.

T1 sequence (P21453 whole entry): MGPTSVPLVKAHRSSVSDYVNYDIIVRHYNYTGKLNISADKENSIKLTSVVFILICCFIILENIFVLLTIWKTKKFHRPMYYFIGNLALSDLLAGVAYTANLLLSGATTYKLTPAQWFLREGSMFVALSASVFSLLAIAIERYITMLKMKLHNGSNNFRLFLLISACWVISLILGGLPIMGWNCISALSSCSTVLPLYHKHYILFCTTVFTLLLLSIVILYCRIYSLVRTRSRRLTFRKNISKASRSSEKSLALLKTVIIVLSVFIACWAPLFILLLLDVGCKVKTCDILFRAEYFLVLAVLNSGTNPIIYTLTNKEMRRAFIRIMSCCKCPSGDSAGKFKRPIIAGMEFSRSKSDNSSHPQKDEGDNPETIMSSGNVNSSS

As to `Cc1cnc(C(Cc2ccccc2)NS(=O)(=O)c2ccc(Cl)cc2)n1C` (stereo not shown) [Example 1, 4-Chloro-N-[1-(1,5-dimethyl-1H-imidazol-2-yl)-2-phenylethyl]benzenesulfonamide], the pEC50 (commonly the negative decadic logarithm of the EC50, by convention in mol/L) was 5.67.
